Here are results for 16 molecules from patent EP2112152A1, “Dihydropteridinones as Plk Inhibitors” (GPC Biotech AG, priority 2008, dated 2009).

Where only a bound is given, the exact number is not on record here.

Common to all, as to format: cell-based
One assay deals with Plk1 (Homo sapiens, UniProt P53350). Nature of the assay: Cellular Plk1 kinase activity: nucleophosmin (B23) Ser4 phosphorylation in HCT116 cells (MSD electrochemiluminescence). Also noted: host or cells: HCT116. As to conditions: 100 ng/ml nocodazole, 4 hours after compound addition, read-out: Biochemical IC50 Nucleophosmin assay. On the procedure: We observed the surprising finding that compounds of the invention were able to penetrate cell membranes and retained their activity as Plk1 inhibitors against native Plk1 expressed within living cancer cells.
Cellular Plk1 kinase activity was measured by quantification of nucleophosmin (B23) Ser4 phosphorylation in a cancer cell line. Nucleophosmin (B23) Ser4 is phosphorylated by Plk1, and this phosphorylation can be specifically detected by cross-reactivity of a phospho-Mek1/2 antibody that is able to recognizes a mitotic-specific phosphorylated form of nucleophosmin (B23) in a nocodazole dependent way (Zhang, H., Shi, X., Paddon, H., Hampong, M., Dai, W., and Pelech, S. (2004) B23/Nuleophosmin Serin 4 Phosphorylation Mediates Mitotic Functions of Polo-like Kinase 1. J. Biol. Chem., 279(34), 35726-35734).
Briefly, HCT116 cells (ATCC, Order No. CCL-247) were plated in 96 well dishes 24 hours prior to nocodazole treatment at 25 000 cells per well. Cells were then treated with 100 ng/ml nocodazole (Sigma-Aldrich, # M1404). 20 hours after nocodazole treatment, cells were exposed to the test compounds at various concentrations appropriate to determine an IC50. 4 hours after compound addition, medium was carefully removed and 120 µl of Complete Tris Lysis Buffer (R60TX; MSD, Gaithersburg MD) was added to each well. Samples were then stored at -20°C.
The level of nucleophosmin (B23) Ser4 phosphorylation in these cell lysis samples was estimated by electrochemiluminescence detection using the Meso Scale Discovery ("MSD") Technology Platform (MSD, Gaithersburg MD). The protocol used was as recommended by the manufacturer with the use of a phospho-Mek1/2 antibody (Cell Signalling, #9121) as primary antibody, and is as follows.
The cell lysates were thawed at room temperature and 40 µl were incubated on 96-well MULTI-ARRAY High Bind plates (L11XB; MSD) for 1.5 - 2 hours at room temperature. The supernatants were then removed and 150 µl of a 5% (w/v) solution of Blocker A (R93AA; MSD) in Tris Wash Buffer (R61TX; MSD) were added to each well. The plates were then incubated for 1 hour at room temperature before removal of the Blocker A solution and washed 4 times with 200 µl Tris Wash Buffer. 25 µl primary antibody (anti-phospho-MEK1/2, Cell Signalling, #9121, rabbit polyclonal), diluted 1:250 in a 1% (w/v) solution of Blocker A in Tris Wash Buffer, were added to each well. The plates were then incubated for 1 hour at room temperature before removal of the antibody solution and washed 4 times with 200 µl Tris Wash Buffer. Then, 25 µl of labelled secondary antibody (SULFO-TAG Goat Anti-Rabbit IgGAntibody (R32AB; MSD), diluted 1:500 in a 1% (w/v) solution of Blocker A in Tris Wash Buffer) were added to each well. The plates were then incubated for 1 hour at room temperature before removal of the antibody solution and washed 4 times with 200 µl Tris Wash Buffer. Then, […] of 1x Read Buffer T (R92TC; MSD) were carefully added to each well and the plates were quantitatively detected for each well with a SECTOR™ Imager 6000 (MSD).
Inhibitory activity of the compounds (IC) was calculated as % inhibition of nucleophosmin (B23) Ser4 phosphorylation compared to cells not treated with nocodazole.

Another assay has as its system HCT 116. Put plainly: SRB cell proliferation assay, HCT 116. As to conditions: Homo sapiens, HCT-116, 72 h, 72 hours, SRB assay; read-out: CELLULAR IC50 HCT 116. On the procedure: (§1) We observed the surprising finding that compounds of the invention were useful in inhibiting proliferation of tumor cell lines (see Table 3).
(§2) Cells were exposed to the test compounds at various concentrations appropriate to determine an IC50 for 72 hours. Cell proliferation was measured using the SRB assay according to Shekan et al (J Natl Cancer Inst (1990) 82, 1107-112) in order to estimate the IC50 values shown in Table 3. Briefly, cells were plated in 96 well dishes 24 hours prior to compound addition at the densities specified in Table 5.1. The assay was terminated with the addition of cold TCA to a final concentration of 10% after growth medium has been removed and the plates were incubated over night at 4°C. The plates were then washed 5 times with water and 100µl of a Sulforhodamine B solution (4%) was added to each well. The plates were then incubated for 10 minutes at room temperature before removal of unbound dye by washing with 1% acetic acid. The bound dye was solubilised with 10 mM Trizma base and the absorbance read at OD520.
(§3) Inhibitory activity of the compounds (IC) was calculated as % inhibition of cell proliferation compared to cells treated with the solvent (DMSO).
(§4) Table 8.1: 18-Cell Line Panel
A general note: The SRB assay estimates cell density from bound dye.

Another assay deals with HT-29. Nature of the assay: SRB cell proliferation assay, HT-29. As to conditions: Homo sapiens, HT-29, 72 h, 72 hours, SRB assay; read-out: CELLULAR IC50 HT-29. On the procedure: as §1, §2, §3, §4
A further assay deals with IMR-90. Put plainly: SRB cell proliferation assay, IMR-90. As to conditions: Homo sapiens, 72 hours, SRB assay, slow cycling cell line, read-out: CELLULAR IC50 IMR-90. On the procedure:
as §1, §2, §3, §4

Sequence of Plk1 (P53350 whole entry, species assumed): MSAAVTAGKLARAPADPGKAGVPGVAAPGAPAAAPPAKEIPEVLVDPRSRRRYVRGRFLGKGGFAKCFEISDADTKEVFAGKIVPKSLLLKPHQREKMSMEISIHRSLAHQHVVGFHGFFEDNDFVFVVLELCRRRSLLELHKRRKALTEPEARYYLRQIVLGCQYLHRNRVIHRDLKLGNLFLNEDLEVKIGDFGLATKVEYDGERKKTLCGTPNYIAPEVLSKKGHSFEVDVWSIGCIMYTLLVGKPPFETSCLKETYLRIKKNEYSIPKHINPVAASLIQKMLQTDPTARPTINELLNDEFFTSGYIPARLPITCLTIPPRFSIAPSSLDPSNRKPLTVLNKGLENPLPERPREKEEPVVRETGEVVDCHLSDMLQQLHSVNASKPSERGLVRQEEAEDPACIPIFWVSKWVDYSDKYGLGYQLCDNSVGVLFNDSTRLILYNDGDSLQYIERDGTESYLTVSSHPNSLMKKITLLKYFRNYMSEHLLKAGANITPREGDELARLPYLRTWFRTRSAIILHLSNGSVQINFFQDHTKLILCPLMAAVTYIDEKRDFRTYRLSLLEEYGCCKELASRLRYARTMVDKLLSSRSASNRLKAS

Broadly, the IC50 is the midpoint of a concentration-inhibition curve. Consider “4-(8-Dimethylamino-7-ethyl-5-methyl-6-oxo-5,6,7,8-tetrahydro-pteridin-2-ylamino)-3-methoxy-N-(2-piperidin-1-yl-ethyl)-benzamide [Compound 6]”, for which the IC50 at Plk1 was less than 100 nM.
With “4-(8-Dimethylamino-7-ethyl-5-methyl-6-oxo-5,6,7,8-tetrahydro-pteridin-2-ylamino)-3-methoxy-N-(4-piperidin-1-ylmethyl-phenyl)-benzamide [Compound 10]”, the IC50 at Plk1 was less than 100 nM.
On the same count and under the same terms, to “4-(8-Dimethylamino-7-ethyl-5-methyl-6-oxo-5,6,7,8-tetrahydro-pteridin-2-ylamino)-3-methoxy-N-[4-(4-methyl-piperazin-1-yl)-phenyl]-benzamide [Compound 8]” belongs less than 100 nM.
Same read-out and setting: to “4-(8-Dimethylamino-7-ethyl-5-methyl-6-oxo-5,6,7,8-tetrahydro-pteridin-2-ylamino)-N-[4-(4-ethyl-piperazin-1-yl)-phenyl]-3-methoxy-benzamide [Compound 9]” belongs less than 100 nM; to “4-[8-(Cyclobutylmethyl-methyl-amino)-7-ethyl-5-methyl-6-oxo-5,6,7,8-tetrahydro-pteridin-2-ylamino]-N-[trans-4-(4-cyclopropylmethyl-piperazin-1-yl)-cyclohexyl]-3-methoxy-benzamide [Compound 35]”, less than 500 nM; to “4-[8-(Cyclopentylmethyl-methyl-amino)-7-ethyl-5-methyl-6-oxo-5,6,7,8-tetrahydro-pteridin-2-ylamino]-N-(1-ethylpiperidin-4-ylmethyl)-3-methoxy-benzamide [Compound 29]”, less than 100 nM.
As for `CCC1C(=O)N(C)c2cnc(Nc3ccc(C(=O)N[C@H]4CC[C@H](N5CCN(CC6CC6)CC5)CC4)cc3OC)nc2N1N(C)Cc1ccccc1` (relative stereo) [Compound 16, 4-[8-(Benzyl-methyl-amino)-7-ethyl-5-methyl-6-oxo-5,6,7,8-tetrahydro-pteridin-2-ylamino]-N-[trans-4-(4-cyclopropylmethyl-piperazin-1-yl)-cyclohexyl]-3-methoxy-benzamide], the IC50 in the assay on HCT 116 is less than 1000 nM; with HT-29 it was less than 1000 nM; with IMR-90 it was more than 1000 nM; at Plk1, less than 100 nM.
Consider `CCC1C(=O)N(C)c2cnc(Nc3ccc(C(=O)N[C@H]4CC[C@H](N5CCN(CC6CC6)CC5)CC4)cc3OC)nc2N1N(C)CC1CC1` (relative stereo) [Compound 18, 4-[8-(Cyclopropylmethyl-methyl-amino)-7-ethyl-5-methyl-6-oxo-5,6,7,8-tetrahydro-pteridin-2-ylamino]-N-[trans-4-(4-cyclopropylmethyl-piperazin-1-yl)-cyclohexyl]-3-methoxy-benzamide], for which the IC50 in the assay with HCT 116 was less than 1000 nM; with HT-29, less than 1000 nM; in the assay on IMR-90 it was more than 1000 nM; on Plk1, less than 500 nM.
Turning to `CCCN(C)N1c2nc(Nc3ccc(C(=O)N[C@H]4CC[C@H](N5CCN(CC6CC6)CC5)CC4)cc3OC)ncc2N(C)C(=O)C1CC` (relative stereo) [Compound 19, N-[trans-4-(4-Cyclopropylmethyl-piperazin-1-yl)-cyclohexyl]-4-[7-ethyl-5-methyl-8-(methyl-propyl-amino)-6-oxo-5,6,7,8-tetrahydro-pteridin-2-ylamino]-3-methoxy-benzamide], the half-maximal inhibitory concentration (IC50) in the assay with HCT 116 is less than 1000 nM; in the assay with HT-29, less than 1000 nM; in the assay with IMR-90, more than 1000 nM; at Plk1 it was less than 100 nM.
Turning to `CCC1C(=O)N(C)c2cnc(Nc3ccc(C(=O)N[C@H]4CC[C@H](N5CCN(CC6CC6)CC5)CC4)cc3OC)nc2N1N(C)CC(C)C` (relative stereo) [Compound 24, N-[trans-4-(4-Cyclopropylmethyl-piperazin-1-yl)-cyclohexyl]-4-[7-ethyl-8-(isobutyl-methyl-amino)-5-methyl-6-oxo-5,6,7,8-tetrahydro-pteridin-2-ylamino]-3-methoxy-benzamide], the IC50 with HCT 116 is less than 1000 nM; in the assay on HT-29, less than 1000 nM; with IMR-90, more than 1000 nM; on Plk1, less than 100 nM.
Turning to `CCC1C(=O)N(C)c2cnc(Nc3ccc(C(=O)N[C@H]4CC[C@H](N5CCN(CC6CC6)CC5)CC4)cc3OC)nc2N1N(C)CC` (relative stereo) [Compound 26, N-[trans-4-(4-Cyclopropylmethyl-piperazin-1-yl)-cyclohexyl]-4-[7-ethyl-8-(ethyl-methyl-amino)-5-methyl-6-oxo-5,6,7,8-tetrahydro-pteridin-2-ylamino]-3-methoxy-benzamide], the IC50 in the assay with HCT 116 is less than 1000 nM; in the assay with HT-29, less than 1000 nM; with IMR-90, more than 1000 nM; at Plk1 it was less than 100 nM.
As for `CCC1C(=O)N(C)c2cnc(Nc3ccc(C(=O)N[C@H]4CC[C@H](N5CCN(CC6CC6)CC5)CC4)cc3OC)nc2N1N(C)CC1CCCC1` (relative stereo) [Compound 28, 4-[8-(Cyclopentylmethyl-methyl-amino)-7-ethyl-5-methyl-6-oxo-5,6,7,8-tetrahydro-pteridin-2-ylamino]-N-[trans-4-(4-cyclopropylmethyl-piperazin-1-yl)-cyclohexyl]-3-methoxy-benzamide], the concentration for half-maximal inhibition (IC50) was less than 1000 nM with HCT 116, less than 1000 nM with HT-29, more than 1000 nM in the assay on IMR-90 and less than 100 nM at Plk1.
With `CCC1C(=O)N(C)c2cnc(Nc3ccc(C(=O)N[C@H]4CC[C@H](N5CCN(CC6CC6)CC5)CC4)cc3OC)nc2N1NC` (relative stereo) [Compound 31, N-[trans-4-(4-Cyclopropylmethyl-piperazin-1-yl)-cyclohexyl]-4-(7-ethyl-5-methyl-8-methylamino-6-oxo-5,6,7,8-tetrahydro-pteridin-2-ylamino)-3-methoxy-benzamide], the IC50 is less than 1000 nM in the assay with HCT 116, less than 1000 nM in the assay with HT-29, more than 1000 nM with IMR-90 and less than 100 nM on Plk1.
`CCC1C(=O)N(C)c2cnc(Nc3ccc(C(=O)NC4CCN(C)CC4)cc3OC)nc2N1N(C)C` (single isomer, unassigned) [Compound 37, 4-(8-dimethylamino-7-ethyl-5-methyl-6-oxo-5,6,7,8-tetrahydro-pteridin-2-ylamino)-3-methoxy-N-(1-methyl-piperidin-4-yl)-benzamide]: at Plk1, the IC50 is less than 100 nM.
Still for that read-out and setting: with “N-(2-Diethylamino-ethyl)-4-(8-dimethylamino-7-ethyl-5-methyl-6-oxo-5,6,7,8-tetrahydro-pteridin-2-ylamino)-3-methoxy-benzamide [Compound 5]” the figure was less than 100 nM; with “N-(2-Diisopropylamino-ethyl)-4-(8-dimethylamino-7-ethyl-5-methyl-6-oxo-5,6,7,8-tetrahydro-pteridin-2-ylamino)-3-methoxy-benzamide [Compound 7]”, less than 100 nM.
